Here are results for ten compounds from ChEMBL document CHEMBL1201862, “PubChem BioAssay data set” (2004).

Among the test systems are EKVX; HOP-62; NCI-H460; SW-620; SK-MEL-2; OVCAR-3; U-251; SNB-75; SF-295; UACC-62; SN12C; M14; NCI-H226; OVCAR-8; LOX IMVI; RPMI-8226; Malme-3M; HCC 2998; NCI-H522; A549.
Holding throughout (assay): NCI-60 cell line screen, 48 h

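Where inhibition never reached the appropriate level, the endpoint shown equals the highest concentration tested. Otherwise, values were interpolated linearly from a five-concentration, 48-hour dose response in 96-well plates. GI50: concentration for 50% inhibition of growth.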 Active and inactive are the calls of the source. Rule as the data show it: active = GI50 up to about 1.1 µM and inactive = higher.

On to `CC#C[C@@]1(O)CCCC[C@@H]1O`, for which the GI50 with EKVX, in the experiment on HOP-62, with NCI-H460, with SW-620, in the experiment with SK-MEL-2 and with OVCAR-3 was > 100 µM (inactive) in each case. The GI50 in the experiment with U-251, with SNB-75, with SF-295, in the experiment with UACC-62, in the experiment on SN12C and in the experiment with M14 was > 100 µM (inactive) throughout. Besides, the GI50 in the experiment with NCI-H226, with OVCAR-8, with LOX IMVI, with RPMI-8226, in the experiment with Malme-3M and in the experiment on HCC 2998 was > 100 µM (inactive) in each case. For the same compound, the GI50 in the experiment on NCI-H522 and in the experiment on A549 was > 100 µM (inactive) in each case.

Turning to `O=c1[nH]c2cc(C(F)(F)F)ccc2nc1C(F)(F)F`, the GI50 in the experiment with EKVX is 32.3 µM (inactive); in the experiment on HOP-62, 18.2 µM (inactive); with NCI-H460, > 100 µM (inactive); in the experiment on SW-620 it was 53.3 µM (inactive); in the experiment with SK-MEL-2, 33.7 µM (inactive); with OVCAR-3, 18.5 µM (inactive). For the same compound, the GI50 with U-251 was 42 µM (inactive); in the experiment with SNB-75, 30.2 µM (inactive); in the experiment with SF-295 it was 30 µM (inactive); in the experiment with UACC-62, 43.2 µM (inactive); in the experiment with SN12C it was 29.7 µM (inactive); in the experiment on M14, 45.1 µM (inactive). For the same compound, the GI50 was 28.6 µM (inactive) in the experiment with NCI-H226; 36 µM (inactive) with OVCAR-8; 30.8 µM (inactive) in the experiment with LOX IMVI; 31.5 µM (inactive) with RPMI-8226; 35.2 µM (inactive) in the experiment with Malme-3M; 49.7 µM (inactive) with HCC 2998. Also, the results for the GI50 with NCI-H522 and in the experiment on A549 were 29.4 µM (inactive) and 32.6 µM (inactive), respectively.

`CC12CCC(O)CC1CCC1C2CCC2(C)C(C(=O)CC(O)C(F)(F)F)CCC12` (stereo not given): the GI50 with EKVX is 40.4 µM (inactive); with HOP-62, 27.7 µM (inactive); in the experiment with NCI-H460, 11.7 µM (inactive); with SW-620, 40.5 µM (inactive); with SK-MEL-2 it was 32.1 µM (inactive); in the experiment on OVCAR-3 it was 28.6 µM (inactive). The GI50 in the experiment on U-251 was 26.2 µM (inactive); in the experiment with SNB-75, 19.3 µM (inactive); with SF-295, 8.73 µM (inactive); in the experiment on UACC-62 it was 52.2 µM (inactive); in the experiment on SN12C it was > 100 µM (inactive); in the experiment with M14, 20.8 µM (inactive). Besides, the GI50 with NCI-H226 was 40 µM (inactive); in the experiment on OVCAR-8 it was 55.7 µM (inactive); in the experiment with LOX IMVI, 7 µM (inactive); with RPMI-8226 it was 4.04 µM (inactive); in the experiment on Malme-3M it was 51.3 µM (inactive); with HCC 2998, 21.6 µM (inactive). Besides, the results for the GI50 in the experiment with NCI-H522 and in the experiment with A549 were 27.1 µM (inactive) and 28.9 µM (inactive), respectively.

With `COC(=O)C1CCC(=O)N1C(c1ccc2c(c1)OCO2)c1cc(OC)c(OC)c(OC)c1` (stereo not given), the GI50 with EKVX, in the experiment with HOP-62, in the experiment on NCI-H460, in the experiment with SW-620, in the experiment on SK-MEL-2 and with OVCAR-3 was > 100 µM (inactive) each time. Besides, the GI50 in the experiment with U-251, in the experiment on SNB-75, in the experiment on SF-295, with UACC-62, in the experiment with SN12C and with M14 was > 100 µM (inactive) in each case. Besides, the GI50 in the experiment with NCI-H226, in the experiment with OVCAR-8, in the experiment with LOX IMVI, in the experiment on RPMI-8226, in the experiment with Malme-3M and with HCC 2998 was > 100 µM (inactive) in each case. Also, the GI50 was 6.35 µM (inactive) with NCI-H522 and > 100 µM (inactive) in the experiment on A549.

Take `CC1(C)Oc2ccccc2OC1O` (stereo not given): the GI50 in the experiment with EKVX, in the experiment with HOP-62, with NCI-H460, with SW-620, in the experiment on SK-MEL-2 and in the experiment on OVCAR-3 was > 100 µM (inactive) in each case. The GI50 with U-251, in the experiment with SNB-75, in the experiment with SF-295, in the experiment with UACC-62, in the experiment on SN12C and with M14 was > 100 µM (inactive) throughout. In addition, the GI50 in the experiment on NCI-H226, with OVCAR-8, with LOX IMVI, in the experiment with RPMI-8226, in the experiment on Malme-3M and in the experiment on HCC 2998 was > 100 µM (inactive) in each case. Moreover, the GI50 with NCI-H522 and in the experiment with A549 was > 100 µM (inactive) in each case.

With `O=c1oc2ccccc2cc1-c1cn2cc(Cl)ccc2n1`, the GI50 in the experiment on EKVX was 21.6 µM (inactive); with HOP-62, 0.714 µM (active); in the experiment on NCI-H460, 0.488 µM (active); with SW-620 it was 0.361 µM (active); with SK-MEL-2, 3.27 µM (inactive); in the experiment with OVCAR-3 it was 0.497 µM (active). Moreover, the GI50 is 0.653 µM (active) with U-251; 1.76 µM (inactive) with SNB-75; 0.535 µM (active) in the experiment with SF-295; 0.245 µM (active) in the experiment on UACC-62; 2.98 µM (inactive) in the experiment on SN12C; 0.544 µM (active) in the experiment with M14. The GI50 with NCI-H226 was 15.6 µM (inactive); in the experiment on OVCAR-8, 1.71 µM (inactive); with LOX IMVI it was 0.698 µM (active); with RPMI-8226, 0.532 µM (active); in the experiment with Malme-3M it was 0.458 µM (active); in the experiment with HCC 2998 it was 1.13 µM (inactive). The GI50 in the experiment with NCI-H522 is 0.104 µM (active); with A549, 0.719 µM (active).

As to `O=C(O)c1ccccc1-c1ccccc1C(=O)Nc1ccc2c(c1)Cc1cc(F)ccc1-2`, the GI50 in the experiment on EKVX is 27.1 µM (inactive); in the experiment with HOP-62, 24.9 µM (inactive); in the experiment on NCI-H460 it was 26.6 µM (inactive); with SW-620, 33.7 µM (inactive); in the experiment on SK-MEL-2, 18.8 µM (inactive); in the experiment with OVCAR-3, 17.7 µM (inactive). The GI50 in the experiment with U-251 was 21.3 µM (inactive); with SNB-75, 26.6 µM (inactive); in the experiment on SF-295, 26.4 µM (inactive); in the experiment with UACC-62, 17.7 µM (inactive); in the experiment with SN12C, 12.3 µM (inactive); in the experiment on M14, 19.7 µM (inactive). In addition, the GI50 in the experiment on NCI-H226 is 30.5 µM (inactive); with OVCAR-8 it was 35.2 µM (inactive); with LOX IMVI, 19.7 µM (inactive); in the experiment on RPMI-8226, 31.5 µM (inactive); in the experiment on Malme-3M it was 33.7 µM (inactive); in the experiment with HCC 2998 it was 16.3 µM (inactive). Moreover, the GI50 was 24.3 µM (inactive) with NCI-H522 and 24.5 µM (inactive) with A549.

On to `Cc1cc(S(=O)(=O)Nc2nncn2-c2ccc(Cl)cc2)c(S)cc1Cl`, for which the GI50 in the experiment on EKVX, in the experiment on HOP-62, in the experiment with NCI-H460, in the experiment on SW-620, in the experiment with SK-MEL-2 and with OVCAR-3 was > 10 µM (inactive) throughout. For the same compound, the GI50 in the experiment with U-251, in the experiment with SNB-75, in the experiment on SF-295, with UACC-62, with SN12C and in the experiment on M14 was > 10 µM (inactive) each time. The GI50 in the experiment with NCI-H226, in the experiment on OVCAR-8, with LOX IMVI, in the experiment on RPMI-8226, with Malme-3M and with HCC 2998 was > 10 µM (inactive) in each case. Also, the GI50 in the experiment with NCI-H522 and with A549 was > 10 µM (inactive) in each case.

For `O=C1CSC(c2ccc(Cl)cc2Cl)N1c1ccc(Oc2ccc(Cl)cc2)c(Cl)c1` (stereo not given), the GI50 with EKVX is 23.3 µM (inactive); in the experiment with HOP-62, 23.8 µM (inactive); in the experiment on NCI-H460, 27.4 µM (inactive); with SW-620 it was 36.5 µM (inactive); in the experiment with SK-MEL-2, 22.4 µM (inactive); in the experiment with OVCAR-3, 17.5 µM (inactive). Also, the GI50 with U-251 was 31.8 µM (inactive); with SNB-75 it was 20.7 µM (inactive); in the experiment with SF-295 it was 22 µM (inactive); with UACC-62, 21.9 µM (inactive); in the experiment with SN12C, 37.7 µM (inactive); in the experiment with M14, 23.9 µM (inactive). Further, the GI50 in the experiment with NCI-H226 is 22.1 µM (inactive); in the experiment on OVCAR-8 it was 29.9 µM (inactive); in the experiment on LOX IMVI it was 16.7 µM (inactive); with RPMI-8226 it was 13.8 µM (inactive); in the experiment with Malme-3M it was 16.9 µM (inactive); in the experiment on HCC 2998, 31 µM (inactive). Besides, the GI50 is 10.4 µM (inactive) in the experiment with NCI-H522 and 27 µM (inactive) in the experiment with A549.

Regarding `C=C(Nc1ccc(OC)cc1OC)C(=O)Cc1cccc[n+]1[O-]`, the GI50 in the experiment on EKVX, with HOP-62, in the experiment on NCI-H460, in the experiment on SW-620, with SK-MEL-2 and in the experiment on OVCAR-3 was > 100 µM (inactive) throughout. The GI50 in the experiment with U-251, in the experiment on SNB-75, in the experiment on SF-295, in the experiment on UACC-62, with SN12C and in the experiment on M14 was > 100 µM (inactive) throughout. The GI50 with NCI-H226, in the experiment with OVCAR-8, with LOX IMVI, in the experiment with RPMI-8226, in the experiment with Malme-3M and with HCC 2998 was > 100 µM (inactive) each time. Besides, the GI50 in the experiment on NCI-H522 and in the experiment with A549 was > 100 µM (inactive) in each case.
